# Measured values: US20110071075A1, “PROMOTER FOR BICARBONATE SECRETION IN GASTROINTESTINAL TRACT” (priority 2008, published 2011)
# Entries after “also recorded” stand apart in the source; their conditions may differ. *1 amine or outer side, *2 acyl side, *3 side chain or, on linkers, in order; H or OH if unused. Where no end group is shown, it is not given here. [ ]: non-standard residue; d: D form. γGlu = O=C(O)[C@H](CCC(=O)[*:2])N[*:1]
# Legend:
# gastric mucosal D cells = assay: Somatostatin secretion of cultured fractionated gastric mucosal D cells (somatostatin ELISA); format: cell-based, male SD rat; details: 90 minutes culture
# Method: The abdomen of each male SD rat was opened in the midline under anesthesia to remove the stomach. The stomach was ligated at the cardiac region and at the junction between the gastric body and the pylorus, and the pyloric region was excised. After that, the stomach was everted so that the luminal side is exposed outside. To the inside of the stomach, Buffer A containing 2.5 mg/ml protease (Sigma P6911, Protease, From Streptomyces griseus, 5.5 unit/mg solid) was injected to prepare a balloon. The balloon was shaken at 37° C. for 30 minutes in Buffer A for 30 minutes and in Buffer B for 30 minutes×three times. After that, the balloon was stirred three times in Buffer B containing 0.5 mg/ml DNase, the detached cells were centrifuged and then suspended in Buffer C. After the cell suspension had been filtered with a filter, cells were fractionated and collected with an elutriator manufactured by Hitachi, Ltd.
# Repeated fractionation was conducted using an elutriator in accordance with Example 3 to collect D cells with high purity. After centrifugation, the cells were suspended in a cell culture medium (D-MEM/F-12 containing 10% FBS) and cultured in a CO2 incubator ([…]+5% CO2, 37° C.) (6×10^5 cells/250 μL/well). After 2-day culture, to the D cells washed with PBS was added each of CaSR agonists (20 μM cinacalcet (CCT), 20 μM γ-EVG, 10 mM phenylalanine (Phe), and 10 mM histidine (His)) mixed in a culture buffer (122 mM NaCl, 5 mM KCl, 25 mM NaHCO3, 1.3 mM MgSO4, 2 mM CaCl2, 15 mM HEPES, and 20 mM glucose, pH 7.4), and the cells were cultured for 90 minutes. After that, a culture supernatant was collected, filtered with a filter, and then measured for its somatostatin concentration with a somatostatin ELISA kit (manufactured by Phoenix, Calif.).
# The somatostatin secretion was measured in accordance with the method of Example 4. After 2-day culture, to the D cells washed with PBS was added a CaSR agonist (20 μM γ-EVG), sodium glutamate (60 mM MSG), or a mixed solution thereof, mixed in a culture buffer (122 mM NaCl, 5 mM KCl, 25 mM NaHCO3, 1.3 mM MgSO4, 2 mM CaCl2, 15 mM HEPES, and 20 mM glucose, pH 7.4), and the cells were cultured for 90 minutes. After that, the culture supernatant was collected, filtered with a filter, and then the somatostatin concentration was measured by a somatostatin ELISA kit (Phoenix, Calif.).
# duodenum = assay: Bicarbonate secretion in the duodenum loop of anesthetized rats (pH-stat method); format: in vivo, male SD rats
# Method: (§1) The bicarbonate secretion was evaluated in accordance with the methods of Aihara et al. (Aihara, E. et al. 2005. J. Pharmacol. Exp. Ther. 315: 423-432) and Kagawa et al. (Kagawa, S. et al. 2003. Digestive Diseases and Sciences 48: 1850-1856).
# As for the bicarbonate secretion in the duodenum, the abdomen of each of male SD rats was opened under anesthesia, and a duodenum loop having a length of 1.7 cm from the pyloric ring of the stomach was prepared. The lumen of the loop was perfused with physiological saline saturated with 100% O2 gas (flow rate: 1 ml/min)
# (§2) A drug was administered into the gastric or duodenal lumen after the bicarbonate secretion at the baseline had been measured for 30 minutes, and the bicarbonate secretion amount was measured every 10 minutes.
# The abdomens of male SD rats were opened under anesthesia, and a duodenum loop having a length of 1.7 cm from the pyloric ring of the stomach was prepared. The lumen of the loop was perfused with physiological saline saturated with 100% O2 gas (flow rate: 1 ml/min).
# After the bicarbonate secretion at the baseline had been measured for 30 minutes, distilled water for injection containing γ-EVG (100 mg/kg) or distilled water for injection (normal) was administered into the duodenal lumen, and the bicarbonate secretion amount was measured every 10 minutes.
# NSAID-induced enteritis = assay: NSAID (loxoprofen)-induced enteritis, damaged area in the small intestine; format: in vivo, rats; details: 30 minutes before loxoprofen 60 mg/kg oral, 24 hours
# Method: To non-fasting rats, distilled water for injection containing cinacalcet (1, 3, 10, and 100 mg/kg) or γ-EVG (100 mg/kg), or distilled water for injection (control) was orally administered. After 30 minutes, loxoprofen (60 mg/kg) was orally administered, and the rats were left to stand for 24 hours. 1 ml of 1% (w/w) Evans Blue dye was intravenously administered, and after 30 minutes, the rats were euthanized under deep ether anesthesia. The small intestine (from the duodenum to the ileum) of each of the rats was removed, then immersed in 2% formalin for 10 minutes so that the small intestine might be fixed from the serosal side, and incised from the opposite side of the mesentery, and the damaged area in the small intestine (mm^2) was measured with a dissecting microscope of 10 times power. The t-test or Dunnett's test was used for a statistical test and p<0.05 was considered significant.
# [1] = test system: histamine-induced gastric acid secretion; assay: Histamine-induced gastric acid secretion in the removed, perfused stomach (pH-stat method); design: species or system male ddY mice; details: for histamine-induced gastric acid secretion: 100 μM histamine
# Method: A model prepared in accordance with the method reported by Horie et al. (British Journal of Pharmacology 1994; 112: 87-92) was used as a model for histamine-induced gastric acid secretion. That is, 6-week-old male ddY mice were fasted for 18 hours, and the stomach was removed from each of the mice under anesthesia with urethane (1.25 g/kg/10 ml, intraperitoneal administration). A polyethylene cannula was inserted at each of the pyloric and esophageal sides of the stomach, and the stomach was left to stand still in an organ bath filled with a buffer (118.1 mM NaCl, 4.8 mM KCl, 1.0 mM KH2PO4, 16.0 mM Na2HPO4, 1.2 mM MgSO4, 0.65 mM CaCl2, and 31.6 mM glucose, saturated with 95% O2/5% CO2 gas, 37° C.). The intragastric pressure was kept at 15 cmH2O, and the lumen of the stomach was perfused with a buffer (135.8 mM NaCl, 4.8 mM KCl, 1.2 mM MgSO4, 1.3 mM CaCl2, and 31.6 mM glucose, pH 5.4, saturated with 95% O2/5% CO2 gas, 37° C.) at a flow rate of 1 ml/min
# The acid secretion amount was continuously measured by dropping 10 mM NaOH to a perfusate until an end point of pH 5.4 by employing a pH-stat method (TOA, AUT-501). The intragastric acid secretion amount during no stimulation was measured for 30 minutes, and then the remove stomach left to stand still in the organ bath was treated with 100 μM histamine and cinacalcet (1.26, 12.6, and 126 μM). The gastric acid secretion amount was titrated for up to 90 minutes. The Dunnett's test was used as a statistical test for an effect of cinacalcet.
# The gastric acid secretion was measured in accordance with the method of Example 2.
# stomach = assay: Bicarbonate secretion in the stomach of anesthetized rats (ex-vivo chamber, pH-stat method); design: species or system male SD rats; details: 10 mg/kg administered into the gastric lumen; omeprazole 60 mg/kg i.p. to inhibit acid secretion
# Method: as §1
# The bicarbonate secretion in the stomach was measured as described below. The abdomen of each of male SD rats was opened in the midline under anesthesia with urethane (1.25 g/kg/5 ml, intraperitoneal administration) to expose the stomach. The stomach was left to stand still in an ex-vivo chamber (Tamura Seisakusho; 3.1 cm^2) and perfused with physiological saline saturated with 100% O2 gas. In order to inhibit acid secretion, 60 mg/kg omeprazole was intraperitoneally administered. The bicarbonate secretion was continuously measured by dropping 2 mM HCl to a perfusate until an end point of pH 7.0 by employing a pH-stat method (TOA, AUT-501).
# as §2
molecule,measurement,setting,value
"N[C@@H](Cc1c[nH]cn1)C(=O)O [His, histidine]",somatostatin secretion,gastric mucosal D cells; 10 mM,remarkably promoted
[γGlu]-Val-Gly [γ-EVG],bicarbonate secretion in the duodenum,duodenum; 100 mg/kg administered into the duodenal lumen,promoted
same,somatostatin secretion,gastric mucosal D cells; 20 μM,remarkably promoted; also recorded: markedly promoted
same,damaged area in the small intestine,NSAID-induced enteritis; 100 mg/kg oral,reduced the damaged area
"N[C@@H](CCC(=O)[O-])C(=O)[O-].[Na+].[Na+] [MSG, sodium glutamate]",somatostatin secretion,gastric mucosal D cells; 60 mM MSG,remarkably inhibited
"N[C@@H](Cc1ccccc1)C(=O)O [Phe, phenylalanine]",somatostatin secretion,gastric mucosal D cells; 10 mM,remarkably promoted
NCCc1c[nH]cn1 [histamine],gastric acid secretion,[1]; 100 μM histamine alone,promoted
same,acid secretion amount,"[1]; 100 μM histamine stimulation, 0.5 to 0.8 nEq/10 min during no stimulation",about 3.2 nEq/10 min
"C[C@@H](NCCCc1cccc(C(F)(F)F)c1)c1cccc2ccccc12.Cl [cinacalcet, (R)—N-(3-(3-trifluoromethylphenyl)propyl)-1-(1-naphthyl)ethylamine hydrochloride]",bicarbonate secretion in the stomach,stomach,promoted
same,bicarbonate secretion in the duodenum,duodenum; 10 mg/kg administered into the duodenal lumen,promoted
same,histamine-induced gastric acid secretion,[1]; 12.6 μM cinacalcet,inhibited
same,histamine-induced gastric acid secretion,"[1]; cinacalcet 1.26, 12.6 and 126 μM",inhibited histamine-induced gastric acid secretion dose-dependently
same,histamine-induced gastric acid secretion,[1]; concentration of 126 μM,completely inhibited
same,somatostatin secretion,gastric mucosal D cells; 20 μM,remarkably promoted
same,damaged area in the small intestine,"NSAID-induced enteritis; 1, 3, 10 and 100 mg/kg oral",reduced the damaged area dose-dependently
